In ChEMBL document CHEMBL1127307, “Structural evolution and pharmacology of a novel series of triacid angiotensin II receptor antagonists” (J Med Chem, 1994):
Active and inactive are the calls of the source. The calls are words filed in the database; no cut-off is given here.

Legend:
[1] = molecular target: T1, Type-1 angiotensin II receptor (Oryctolagus cuniculus) (UniProt P34976); experiment: In vitro antagonistic activity against Ang II (AT1) receptor was determined in rabbit aorta; format: functional, tissue-based
T1 sequence (whole entry): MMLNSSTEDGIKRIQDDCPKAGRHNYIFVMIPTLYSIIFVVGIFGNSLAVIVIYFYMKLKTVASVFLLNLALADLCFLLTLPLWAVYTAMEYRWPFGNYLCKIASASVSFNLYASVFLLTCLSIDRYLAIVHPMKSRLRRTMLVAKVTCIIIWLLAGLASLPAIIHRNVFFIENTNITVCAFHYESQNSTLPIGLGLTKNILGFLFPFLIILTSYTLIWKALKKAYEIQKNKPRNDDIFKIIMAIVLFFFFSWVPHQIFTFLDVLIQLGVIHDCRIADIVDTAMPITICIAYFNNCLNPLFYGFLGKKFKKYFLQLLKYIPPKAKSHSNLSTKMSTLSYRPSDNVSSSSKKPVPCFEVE

[2] = molecular target: T2, Type-1 angiotensin II receptor B (Rattus norvegicus) (UniProt P29089); experiment: In vivo pressor response to Ang II (AT1) receptor in pithed rats at an oral dose of 10 mg/kg; Not active; format: functional, organism-based; set-up: dose 10 mg/kg
T2 sequence (whole entry): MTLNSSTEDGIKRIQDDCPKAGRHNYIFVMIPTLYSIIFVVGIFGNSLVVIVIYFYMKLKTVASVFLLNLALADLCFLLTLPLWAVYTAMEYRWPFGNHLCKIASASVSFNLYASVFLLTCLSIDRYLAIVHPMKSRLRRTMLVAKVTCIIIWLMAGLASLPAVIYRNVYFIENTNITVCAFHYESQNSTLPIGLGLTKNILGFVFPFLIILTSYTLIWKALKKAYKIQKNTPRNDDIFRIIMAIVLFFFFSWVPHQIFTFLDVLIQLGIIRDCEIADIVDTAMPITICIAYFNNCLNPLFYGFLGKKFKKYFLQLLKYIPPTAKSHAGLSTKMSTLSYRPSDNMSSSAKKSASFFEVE

[3] = molecular target: T2, Type-1 angiotensin II receptor B (Rattus norvegicus); experiment: In vivo pressor response to Ang II (AT1) receptor in pithed rats at an oral dose of 10 mg/kg; format: functional, organism-based; set-up: dose 10 mg/kg

Row | Structure (SMILES) | Kb [1] | Kb [2] | Kb [3]
1 | CCCCCC[C@H](C(=O)N1C[C@@H](Oc2ccc(CCC(=O)O)cc2)C[C@H]1C(=O)O)n1cnc(NC(=O)c2ccccc2S(=O)(=O)O)c1 | 0.6 nM | inactive | 
2 | CCCCCC[C@H](C(=O)N1C[C@@H](Oc2ccc3ccccc3c2)C[C@H]1C(=O)O)n1cnc(NC(=O)c2ccccc2S(=O)(=O)O)c1 | 4.1 nM |  | 
3 | CCCCCC[C@H](C(=O)N1C[C@@H](Oc2ccc3c(c2)OCO3)C[C@H]1C(=O)O)n1cnc(NC(=O)c2ccccc2S(=O)(=O)O)c1 | 0.92 nM |  | 
4 | CCCCCC[C@H](C(=O)N1C[C@@H](Oc2ccc(CC(=O)O)cc2)C[C@H]1C(=O)O)n1cnc(NC(=O)c2ccccc2S(=O)(=O)O)c1 | 0.27 nM |  | 2.8 mg/kg
5 | CCCCCC[C@H](C(=O)N1C[C@@H](Oc2ccc(OC(C)C)cc2)C[C@H]1C(=O)O)n1cnc(NC(=O)c2ccccc2S(=O)(=O)O)c1 | 4.1 nM |  | 
6 | CCCCCC[C@H](C(=O)N1C[C@@H](Oc2ccc(-c3ccccc3)cc2)C[C@H]1C(=O)O)n1cnc(NC(=O)c2ccccc2S(=O)(=O)O)c1 | 10 nM |  | 
7 | CCCCCC[C@H](C(=O)N1C[C@@H](Oc2cccc3cnccc23)C[C@H]1C(=O)O)n1cnc(NC(=O)c2ccccc2S(=O)(=O)O)c1 | 3.3 nM |  | 
8 | CCCCCC[C@H](C(=O)N1C[C@@H](Oc2ccc(C(F)(F)F)cc2)C[C@H]1C(=O)O)n1cnc(NC(=O)c2ccccc2S(=O)(=O)O)c1 | 34.7 nM |  | 
9 | CCCCCC[C@H](C(=O)N1C[C@@H](Oc2cccc3ccccc23)C[C@H]1C(=O)O)n1cnc(NC(=O)c2ccccc2S(=O)(=O)O)c1 | 4040 nM |  | 
10 | CCCCCC[C@H](C(=O)N1C[C@@H](Oc2ccccc2CC(=O)O)C[C@H]1C(=O)O)n1cnc(NC(=O)c2ccccc2S(=O)(=O)O)c1 | 501 nM | inactive | 
11 | CCCCCC[C@H](C(=O)N1C[C@@H](Oc2ccc(C(C)C)cc2)C[C@H]1C(=O)O)n1cnc(NC(=O)c2ccccc2S(=O)(=O)O)c1 | 25.1 nM |  | 
12 | CCCCCC[C@H](C(=O)N1C[C@@H](Oc2ccc(CC3N=NN=N3)cc2)C[C@H]1C(=O)O)n1cnc(NC(=O)c2ccccc2S(=O)(=O)O)c1 | 0.6 nM | inactive | 
13 | CCCCCC[C@H](C(=O)N1C[C@@H](Oc2ccc(CP(=O)(O)O)cc2)C[C@H]1C(=O)O)n1cnc(NC(=O)c2ccccc2S(=O)(=O)O)c1 | 0.9 nM |  | 1.8 mg/kg
14 | CCCCCC[C@H](C(=O)N1C[C@@H](Oc2ccc(C(C)(C)C)cc2)C[C@H]1C(=O)O)n1cnc(NC(=O)c2ccccc2S(=O)(=O)O)c1 | 126 nM |  | 
15 | CCCCCC[C@H](C(=O)N1C[C@@H](Oc2ccc(OC)c(OC)c2)C[C@H]1C(=O)O)n1cnc(NC(=O)c2ccccc2S(=O)(=O)O)c1 | 15.8 nM |  | 
16 | CCCCCC[C@H](C(=O)N1C[C@@H](Oc2ccc(C(C)(C)C(=O)O)cc2)C[C@H]1C(=O)O)n1cnc(NC(=O)c2ccccc2S(=O)(=O)O)c1 | 0.6 nM |  | 6.5 mg/kg
17 | CCCCCC[C@H](C(=O)N1C[C@@H](Oc2ccc(OC(C)(C)C)cc2)C[C@H]1C(=O)O)n1cnc(NC(=O)c2ccccc2S(=O)(=O)O)c1 | 5.2 nM |  | 
18 | CCCCCC[C@H](C(=O)N1C[C@@H](Oc2ccc(C(=O)O)cc2)C[C@H]1C(=O)O)n1cnc(NC(=O)c2ccccc2S(=O)(=O)O)c1 | 1.1 nM | inactive | 
19 | CCCCCC[C@H](C(=O)N1C[C@@H](Oc2ccc(OC)cc2)C[C@H]1C(=O)O)n1cnc(NC(=O)c2ccccc2S(=O)(=O)O)c1 | 0.44 nM |  | 
20 | CCCCCC[C@H](C(=O)N1C[C@@H](Oc2ccc3sccc3c2)C[C@H]1C(=O)O)n1cnc(NC(=O)c2ccccc2S(=O)(=O)O)c1 | 3.6 nM |  | 
21 | CCCCCC[C@H](C(=O)N1C[C@@H](Oc2ccc(CCP(=O)(O)O)cc2)C[C@H]1C(=O)O)n1cnc(NC(=O)c2ccccc2S(=O)(=O)O)c1 | 0.4 nM |  | 8.3 mg/kg
22 | CCCCCC[C@H](C(=O)N1C[C@@H](Oc2ccc3occc3c2)C[C@H]1C(=O)O)n1cnc(NC(=O)c2ccccc2S(=O)(=O)O)c1 | 0.63 nM |  | 

The next lines start with the values.

Row | Kb [1] | Kb [2] | Kb [3] | Structure (SMILES)
23 | 684 nM |  |  | CCCCCCC(C(=O)O)n1cnc(NC(=O)c2ccccc2C(=O)O)c1 (centres undefined)
24 | 148 nM |  |  | CCCCCC[C@H](C(=O)N1C[C@@H](Oc2cccnc2)C[C@H]1C(=O)O)n1cnc(NC(=O)c2ccccc2S(=O)(=O)O)c1
25 | 3 nM |  |  | CCCCCC[C@H](C(=O)N1C[C@@H](Oc2ccc(F)cc2)C[C@H]1C(=O)O)n1cnc(NC(=O)c2ccccc2S(=O)(=O)O)c1
26 | 461 nM |  |  | CCCCCC[C@@H](C(=O)N1CCC[C@H]1C(=O)O)n1cnc(NC(=O)c2ccccc2S(=O)(=O)O)c1
27 | 11.6 nM |  |  | CCCCCC[C@H](C(=O)N1C[C@@H](Oc2cccc(OC)c2)C[C@H]1C(=O)O)n1cnc(NC(=O)c2ccccc2S(=O)(=O)O)c1
28 | 25.8 nM |  |  | CCCCCC[C@H](C(=O)N1C[C@@H](O)C[C@H]1C(=O)O)n1cnc(NC(=O)c2ccccc2S(=O)(=O)O)c1
29 | 94.6 nM |  |  | CCCCCC[C@H](C(=O)N1C[C@@H](Oc2ccno2)C[C@H]1C(=O)O)n1cnc(NC(=O)c2ccccc2S(=O)(=O)O)c1
30 | 124 nM |  |  | CCCCCCC(C(=O)O)n1cnc(NC(=O)c2cccc(O)c2C(=O)O)c1 (centres undefined)
31 | 12500 nM |  |  | CCCCCCC(C(=O)O)n1cnc(NC(=O)c2ccccc2)c1 (centres undefined)
32 | 50.9 nM |  |  | CCCCCC[C@H](C(=O)N1CCC[C@H]1C(=O)O)n1cnc(NC(=O)c2ccccc2S(=O)(=O)O)c1
33 | 159 nM |  |  | CCCCCCC(C(=O)O)n1cnc(NC(=O)c2ccccc2-c2nn[nH]n2)c1 (centres undefined)
34 | 1.09 nM |  |  | CCCCCC[C@H](C(=O)N1C[C@@H](Oc2ccc(C)cc2)C[C@H]1C(=O)O)n1cnc(NC(=O)c2ccccc2S(=O)(=O)O)c1
35 | 15.8 nM |  | 10.6 mg/kg | CCCCCC[C@H](C(=O)N1C[C@@H](Oc2cccc(CC(=O)O)c2)C[C@H]1C(=O)O)n1cnc(NC(=O)c2ccccc2S(=O)(=O)O)c1
36 | 0.8 nM |  |  | CCCCCC[C@H](C(=O)N1C[C@@H](Oc2ccccc2)C[C@H]1C(=O)O)n1cnc(NC(=O)c2ccccc2S(=O)(=O)O)c1
37 | 71.5 nM |  |  | CCCCC(C(=O)O)n1cnc(C(=O)Nc2ccccc2)c1 (centres undefined)
38 | 81.7 nM |  |  | CCCCCCC(C(=O)O)n1cnc(NC(=O)c2ccccc2S(=O)(=O)O)c1 (centres undefined)
39 | 3.2 nM |  |  | CCCCCC[C@@H](C(=O)N1C[C@@H](Oc2ccccc2)C[C@H]1C(=O)O)n1cnc(NC(=O)c2ccccc2S(=O)(=O)O)c1
40 | > 30 nM |  |  | CCCCCC[C@H](C(=O)N1C[C@@H](Oc2ccccc2OC)C[C@H]1C(=O)O)n1cnc(NC(=O)c2ccccc2S(=O)(=O)O)c1
